Reference: patent US12509431B2, “1,4-dihydroquinazolinone compounds and uses thereof” (Edgewise Therapeutics, Inc., priority 2022, dated 2025)

Key:
Format in all cases: biochemical
[1] = tested on: Rabbit Skeletal myofibrils (rabbit psoas muscle); assay: Myofibril ATPase assay (PK/LDH NADH-coupled), skeletal myofibrils
Method in brief: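 Rabbit psoas myofibrils in pCa (PIPES/CaCl2/EGTA, pH 7.0) buffer; ADP coupled via PK/LDH to NADH loss, read at 340 nm every 1.5–2 min for 75 min. Slopes normalized to vehicle (100%) and fit to 4-parameter logistic for EC25, plus EC50 for inhibitors.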

[2] = molecular target: T1, Porcine Ventricle myofibrils (left ventricle of Yucatan minipigs) (Sus scrofa, UniProt P79293); assay: Myofibril ATPase assay (PK/LDH NADH-coupled), ventricle myofibrils
T1 construct: Myofibrils from porcine cardiac muscle was isolated from the left ventricle of Yucatan minipigs; tissue Exemplar Genetics; host or cells: left ventricle of Yucatan minipigs
T1 sequence (P79293 whole entry): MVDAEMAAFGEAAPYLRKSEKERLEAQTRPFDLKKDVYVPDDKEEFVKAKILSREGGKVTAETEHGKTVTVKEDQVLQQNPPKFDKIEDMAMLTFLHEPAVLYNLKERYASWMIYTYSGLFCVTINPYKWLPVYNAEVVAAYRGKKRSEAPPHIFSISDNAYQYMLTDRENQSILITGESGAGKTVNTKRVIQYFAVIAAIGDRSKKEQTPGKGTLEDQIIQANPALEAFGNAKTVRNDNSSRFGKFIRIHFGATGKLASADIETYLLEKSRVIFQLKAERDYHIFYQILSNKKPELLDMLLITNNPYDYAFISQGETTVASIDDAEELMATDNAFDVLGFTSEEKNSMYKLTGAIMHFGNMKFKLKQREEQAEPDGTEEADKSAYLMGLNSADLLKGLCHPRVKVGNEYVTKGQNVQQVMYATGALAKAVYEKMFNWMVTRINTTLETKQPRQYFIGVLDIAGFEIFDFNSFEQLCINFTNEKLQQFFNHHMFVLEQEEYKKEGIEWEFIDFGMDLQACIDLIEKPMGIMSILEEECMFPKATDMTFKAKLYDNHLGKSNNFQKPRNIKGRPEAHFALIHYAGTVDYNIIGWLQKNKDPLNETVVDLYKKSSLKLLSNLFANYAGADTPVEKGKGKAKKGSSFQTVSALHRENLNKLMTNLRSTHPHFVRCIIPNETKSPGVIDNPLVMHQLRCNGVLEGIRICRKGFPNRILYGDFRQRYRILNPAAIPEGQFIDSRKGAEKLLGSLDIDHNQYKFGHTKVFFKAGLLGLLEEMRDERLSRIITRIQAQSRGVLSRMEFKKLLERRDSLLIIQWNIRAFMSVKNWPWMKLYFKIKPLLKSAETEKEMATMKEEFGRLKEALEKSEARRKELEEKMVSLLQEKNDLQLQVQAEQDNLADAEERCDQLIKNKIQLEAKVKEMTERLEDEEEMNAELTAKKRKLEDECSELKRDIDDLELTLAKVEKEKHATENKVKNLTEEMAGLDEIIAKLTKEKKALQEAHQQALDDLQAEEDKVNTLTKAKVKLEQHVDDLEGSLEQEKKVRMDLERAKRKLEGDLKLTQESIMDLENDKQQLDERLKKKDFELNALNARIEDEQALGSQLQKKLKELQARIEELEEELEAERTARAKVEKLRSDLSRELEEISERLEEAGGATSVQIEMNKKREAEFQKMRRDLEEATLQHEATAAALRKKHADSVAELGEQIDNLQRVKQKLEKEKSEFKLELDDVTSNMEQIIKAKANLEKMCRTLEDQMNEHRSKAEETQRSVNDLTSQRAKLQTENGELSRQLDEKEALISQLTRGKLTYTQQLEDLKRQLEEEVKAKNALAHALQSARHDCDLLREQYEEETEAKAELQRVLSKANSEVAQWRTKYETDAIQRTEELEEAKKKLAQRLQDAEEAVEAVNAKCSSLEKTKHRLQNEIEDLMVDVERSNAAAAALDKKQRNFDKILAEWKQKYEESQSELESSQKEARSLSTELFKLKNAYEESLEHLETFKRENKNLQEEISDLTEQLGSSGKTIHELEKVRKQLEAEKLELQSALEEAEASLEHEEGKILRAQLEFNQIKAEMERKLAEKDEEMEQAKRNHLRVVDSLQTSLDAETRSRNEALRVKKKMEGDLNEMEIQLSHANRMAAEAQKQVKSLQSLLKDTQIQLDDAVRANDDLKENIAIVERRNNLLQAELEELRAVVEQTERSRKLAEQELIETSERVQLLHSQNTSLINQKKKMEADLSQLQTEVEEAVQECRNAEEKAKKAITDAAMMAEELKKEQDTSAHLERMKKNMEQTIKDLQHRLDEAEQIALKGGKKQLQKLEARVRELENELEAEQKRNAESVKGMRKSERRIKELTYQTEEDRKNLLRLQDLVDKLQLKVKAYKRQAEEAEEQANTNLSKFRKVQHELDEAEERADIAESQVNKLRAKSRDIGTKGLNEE
Method in brief: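 Yucatan minipig left-ventricle myofibrils; ATPase measured by PK/LDH-coupled NADH loss at 340 nm, read every 1.5-2 min for 75 min. Slopes normalized to vehicle (100%) and fit to 4-parameter logistic model; EC25 and, for inhibitors, EC50 calculated.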

[3] = tested on: Porcine Atria myofibrils; assay: Myofibril ATPase assay (PK/LDH NADH-coupled), atria myofibrils
Method in brief: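 Porcine atrial myofibril ATPase followed via PK/LDH-coupled NADH depletion, absorbance at 340 nm read every 1.5-2 min over 75 min. Slopes (mAU/min) normalized to vehicle as 100% and fit to a 4-parameter logistic; EC25% derived, plus EC50% for inhibitors.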

| SMILES | Rabbit Psoas IC25 ([1]; Table 8) | Porcine Ventricle IC25 ([2]; Table 8) | Porcine Atria IC25 ([3]; Table 8) | Rabbit Psoas IC25 ([1]; Table 7) | Porcine Ventricle IC25 ([2]; Table 7) | Porcine Atria IC25 ([3]; Table 7) |
| --- | --- | --- | --- | --- | --- | --- |
| Cc1nsc([C@@H](C)NC(=O)CN2Cc3c(ccc(F)c3F)NC2=O)n1 [Compound B359] | 13.87 µM | 100.00 µM | 4.96 µM | – | – | – |
| C[C@@H](NC(=O)CN1Cc2c(ccc(F)c2F)NC1=O)c1cc2c(cn1)N(C)CCO2 [Compound B360] | 100.00 µM | 9.49 µM | 44.86 µM | – | – | – |
| C[C@H](NC(=O)CN1Cc2c(ccc(F)c2F)NC1=O)c1cc2c(cn1)N(C)CCO2 [Compound B361] | 100.00 µM | 100.00 µM | 100.00 µM | – | – | – |
| O=C(CN1Cc2c(ccc(F)c2F)NC1=O)N[C@@H]1COCc2cc(F)cnc21 [Compound B362] | 0.52 µM | 1.04 µM | 100.00 µM | – | – | – |
| O=C(CN1Cc2c(ccc(F)c2F)NC1=O)N[C@H]1COCc2cc(F)cnc21 [Compound B363] | 100.00 µM | 100.00 µM | 100.00 µM | – | – | – |
| C[C@@H](NC(=O)CN1Cc2c(ccc(F)c2F)NC1=O)c1cc2c(cn1)OCCN2 [Compound B364] | 100.00 µM | 100.00 µM | 20.41 µM | – | – | – |
| C[C@H](NC(=O)CN1Cc2c(ccc(F)c2F)NC1=O)c1cc2c(cn1)OCCN2 [Compound B365] | 100.00 µM | 100.00 µM | 100.00 µM | – | – | – |
| N#Cc1cnc2c(c1)CC[C@H]2NC(=O)CN1C(=O)Nc2cccnc2C12CC2 [Compound N1] | – | – | – | 100 µM | 100 µM | 70.94 µM |
| N#Cc1cnc2c(c1)CC[C@@H]2NC(=O)CN1C(=O)Nc2cccnc2C12CC2 [Compound N2] | – | – | – | 4.055 µM | 34.26 µM | 17.14 µM |
| C[C@@H](NC(=O)CN1C(=O)Nc2ccc(C#N)nc2C12CC2)c1ncc(C#N)cc1F [Compound N3] | – | – | – | 18.85 µM | 100 µM | 2.59 µM |
| C[C@H](NC(=O)CN1C(=O)Nc2ccc(C#N)nc2C12CC2)c1ncc(C#N)cc1F [Compound N4] | – | – | – | 0.1067 µM | 0.474 µM | 0.07 µM |
| N#Cc1cc(F)c2c(c1)OC[C@H]2NC(=O)CN1Cc2c(ccnc2C(F)(F)F)NC1=O [Compound N5] | – | – | – | 0.0178 µM | 0.1154 µM | 0.07 µM |
| N#Cc1cc(F)c2c(c1)OC[C@@H]2NC(=O)CN1Cc2c(ccnc2C(F)(F)F)NC1=O [Compound N6] | – | – | – | 2.918 µM | 38.22 µM | 2.82 µM |
| N#Cc1nccc2c1CN(CC(=O)N[C@@H]1COc3cc(F)cc(F)c31)C(=O)N2 [Compound N7] | – | – | – | 0.0355 µM | 0.266 µM | 0.11 µM |
| N#Cc1nccc2c1CN(CC(=O)N[C@H]1COc3cc(F)cc(F)c31)C(=O)N2 [Compound N8] | – | – | – | 0.3271 µM | 13.21 µM | 2.20 µM |
| O=C(CN1Cc2cnccc2NC1=O)N[C@@H]1COc2cc(F)cc(F)c21 [Compound N10] | – | – | – | 0.4579 µM | 13.44 µM | 0.82 µM |
| O=C(CN1Cc2cnccc2NC1=O)N[C@H]1COc2cc(F)cc(F)c21 [Compound N11] | – | – | – | 100 µM | 100 µM | 100.00 µM |
| C[C@@H](NC(=O)CN1C(=O)Nc2ccc(C#N)nc2C12CC2)c1ccc(F)cc1F [Compound N12] | – | – | – | 100 µM | 100 µM | 7.63 µM |

| SMILES | Rabbit Psoas IC25 ([1]; Table 8) | Porcine Ventricle IC25 ([2]; Table 8) | Porcine Atria IC25 ([3]; Table 8) | Rabbit Psoas IC25 ([1]; Table 7) | Porcine Ventricle IC25 ([2]; Table 7) | Porcine Atria IC25 ([3]; Table 7) |
| --- | --- | --- | --- | --- | --- | --- |
| C[C@H](NC(=O)CN1C(=O)Nc2ccc(C#N)nc2C12CC2)c1ccc(F)cc1F [Compound N13] | – | – | – | 0.063 µM | 0.8569 µM | 0.07 µM |
| C[C@@H](NC(=O)CN1C(=O)Nc2ccc(C#N)nc2C12CC2)c1ncc(F)cc1F [Compound N14] | – | – | – | 100 µM | 100 µM | 1.16 µM |
| C[C@H](NC(=O)CN1C(=O)Nc2ccc(C#N)nc2C12CC2)c1ncc(F)cc1F [Compound N15, 2-{6′-Cyano-2′-oxo-1′H-spiro[cyclopropane-1,4′-pyrido[3,2-d]pyrimidin]-3′-yl}-N-[(1S)-1-(3,5-difluoropyridin-2-yl)ethyl]acetamide] | – | – | – | 0.197 µM | 2.788 µM | 0.07 µM |
| C[C@@H](NC(=O)CN1C(=O)Nc2cccnc2C12CC2)c1ccc(C#N)cn1 [Compound N16] | – | – | – | 1.645 µM | 100 µM | 0.60 µM |
| C[C@H](NC(=O)CN1C(=O)Nc2cccnc2C12CC2)c1ccc(C#N)cn1 [Compound N17] | – | – | – | 100 µM | 100 µM | 75.12 µM |
| O=C(CN1Cc2c(ccnc2C(F)(F)F)NC1=O)N[C@@H]1COc2cc(F)cc(F)c21 [Compound N18] | – | – | – | 0.03098 µM | 1.324 µM | 0.12 µM |
| O=C(CN1Cc2c(ccnc2C(F)(F)F)NC1=O)N[C@H]1COc2cc(F)cc(F)c21 [Compound N19] | – | – | – | 2.245 µM | 11.46 µM | 2.00 µM |
| C[C@@H](NC(=O)CN1Cc2cnccc2NC1=O)c1ccc(C#N)cc1F [Compound N20] | – | – | – | 0.1315 µM | 100 µM | 100.00 µM |
| C[C@H](NC(=O)CN1Cc2cnccc2NC1=O)c1ccc(C#N)cc1F [Compound N21] | – | – | – | 6.632 µM | 13.45 µM | 4.36 µM |
| C[C@@H](NC(=O)CN1Cc2c(ccnc2C#N)NC1=O)c1ccc(C#N)cc1F [Compound N22] | – | – | – | 0.2583 µM | 100 µM | 100.00 µM |
| C[C@H](NC(=O)CN1Cc2c(ccnc2C#N)NC1=O)c1ccc(C#N)cc1F [Compound N23] | – | – | – | 0.0165 µM | 0.1625 µM | 0.28 µM |
| C[C@H](NC(=O)CN1Cc2c(C#N)cncc2NC1=O)c1ccc(F)cc1F [Compound N24, 2-{5-Cyano-2-oxo-1H,4H-pyrido[3,4-d]pyrimidin-3-yl}-N-[(1S)-1-(2,4-difluorophenyl)ethyl]acetamide] | – | – | – | 0.2119 µM | 37.65 µM | 2.97 µM |
| C[C@@H](NC(=O)CN1C(=O)Nc2cccnc2C12CC2)c1ncc(C#N)cc1F [Compound N25] | – | – | – | 1.324 µM | 100 µM | 13.11 µM |
| O=C(CN1C(=O)Nc2cccnc2C12CC2)N[C@H](CO)c1ccc(F)cc1F [Compound N27] | – | – | – | 100 µM | 100 µM | 100.00 µM |
| O=C(CN1C(=O)Nc2cccnc2C12CC2)N[C@@H](CO)c1ccc(F)cc1F [Compound N28] | – | – | – | 0.2814 µM | 6.602 µM | 0.41 µM |
| C[C@@H](NC(=O)CN1C(=O)Nc2cccnc2C12COC2)c1ncc(F)cc1F [Compound N29] | – | – | – | 100 µM | 100 µM | 100.00 µM |
| C[C@H](NC(=O)CN1C(=O)Nc2cccnc2C12COC2)c1ncc(F)cc1F [Compound N30] | – | – | – | 5.318 µM | 100 µM | 35.72 µM |
| N#Cc1ccc([C@@H](CO)NC(=O)CN2Cc3c(ccnc3C#N)NC2=O)c(F)c1 [Compound N31] | – | – | – | 0.0533 µM | 1.237 µM | 0.38 µM |
